# In patent US20230357210A1, “NITROGEN-CONTAINING CONDENSED HETEROCYCLIC COMPOUND HAVING AN OXIME GROUP, AGRICULTURAL OR HORTICULTURAL HERBICIDE COMPRISING THE COMPOUND, AND METHOD FOR USING THE COMPOUND OR THE HERBICIDE” (NIHON NOHYAKU CO., LTD., priority 2020, published 2023):
row,Compound,melting point [°C]
1,"CCO/N=C(\C)c1ccc(C(=O)OC)c(-c2nc3cc(SC(F)(F)F)ccc3n2C)n1 [2-105, 6-[(E)-N-ethoxy-C-methyl-carbonimidoyl]-2-[1-methyl-5-(trifluoromethylthio)benzimidazol-2-yl]pyridine-3-carboxylic acid methyl ester]",121 to 122
2,"CCON=C(NC)c1ccc(S(C)(=O)=O)c(-c2nc3cc(C(F)(F)F)ccc3n2C)n1 [1-216, N′-ethoxy-N-methyl-5-methylsulfonyl-6-[1-methyl-5-(trifluor omethyl)benzimidazol-2-yl]pyridine-2-carboxamidine]",154 to 155
3,"CCO/N=C/c1ccc(C(=O)N(C)C)c(-c2nc3cc(SC(F)(F)F)ccc3n2C)n1 [2-95, 6-[(E)-ethoxyiminomethyl]-N,N-dimethyl-2-[1-methyl-5-(trifluoromethylthio)benzimidazol-2-yl]pyridine-3-carboxamide]",118 to 119
4,"CCON=C(N)c1ccc(S(=O)(=O)NC)c(-c2nc3cc(C(F)(F)F)ccc3n2C)n1 [1-210, N′-ethoxy-5-methylsulfamoyl-6-[1-methyl-5-(trifluoromethyl)benzimidazol-2-yl)pyridine-2-carboxamidine]",173 to 174
5,"CCO/N=C/c1ccc(C(=O)O)c(-c2nc3cc(SC(F)(F)F)ccc3n2C)n1 [2-81, 6-[(E)-ethoxyiminomethyl]-2-[1-methyl-5-(trifluoromethylthio)benzimidazol-2-yl]pyridine-3-carboxylic acid]",195 to 196
6,"CCON=C(c1ccc(S(C)(=O)=O)c(-c2nc3cc(C(F)(F)F)ccc3n2C)n1)N(C)C [1-220, N′-ethoxy-N,N-dimethyl-5-methylsulfonyl-6-[1-methyl-5-(trifluoromethyl)benzimidazol-2-yl)pyridine-2-carboxamidine]",150 to 151
7,"CCON=C(N)c1ccc(C(=O)OC)c(-c2nc3cc(C(F)(F)F)ccc3n2C)n1 [2-123, N′-ethoxy-5-methoxycarbonyl-6-[1-methyl-5-(trifluoromethyl)benzimidazol-2-yl)pyridine-2-carboxamidine]",46 to 47
8,"CCON=C(N)c1ccc(S(C)(=O)=O)c(-c2nc3cc(C(F)(F)F)ccc3n2C)n1 [1-205, N′-ethoxy-5-methylsulfonyl-6-[1-methyl-5-(trifluoromethyl)benzimidazol-2-yl]pyridine-2-carboxamidine]",149 to 150

# Second part, the compound after the results:
row,melting point [°C],Compound
1,222 to 223,"CCO/N=C(\N)c1ncc(S(=O)(=O)NC)c(-c2nc3ccccc3n2C)n1 [8-6, (Z)-N′-ethoxy-4-(1-methyl-1H-benzo[d]imidazol-2-yl)-5-(N-methylsulfamoyl)pyrimidine-2-carboximidamide]"
2,246 to 247,"CCON=C(N)c1cc(C)c(S(C)(=O)=O)c(-c2nc3cc(C(F)(F)F)ccc3n2C)n1 [3-70, N′-ethoxy-4-methyl-5-methylsulfonyl-6-[1-methyl-5-(trifluor omethyl)benzimidazol-2-yl]pyridine-2-carboxamidine]"
3,244 to 246,"CCO/N=C(\N)c1cnc(S(=O)(=O)NC)c(-c2nc3cc(C(F)(F)F)ccc3n2C)n1 [7-46, (Z)-N′-ethoxy-6-(1-methyl-5-(trifluoromethyl)-1H-benzo[d]imidazol-2-yl)-5-(N-methylsulfamoyl)pyrazine-2-carboximidamide]"
4,144 to 145,"CCON=C(N)c1cc(C)c(Cl)c(-c2nc3cc(C(F)(F)F)ccc3n2C)n1 [3-65, 5-chloro-N′-ethoxy-4-methyl-6-[1-methyl-5-(trifluoromethyl)benzimidazol-2-yl]pyridine-2-carboxamidine]"
